This note sets out measurements from ChEMBL document CHEMBL1201862, “PubChem BioAssay data set” (2004).

Structures are written as SMILES. Activity calls are given as the source filed them. Where only a bound is given, the exact number is not on record here.

Usually AC50 stands for the concentration at which the activity in the assay is half-maximal.

In one assay the target is T1, Cytochrome P450 1A2 (Homo sapiens, UniProt P05177).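 Also: PubChem cytochrome P450 panel assay, CYP1A2 panel member.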
T1 sequence (P05177 whole entry): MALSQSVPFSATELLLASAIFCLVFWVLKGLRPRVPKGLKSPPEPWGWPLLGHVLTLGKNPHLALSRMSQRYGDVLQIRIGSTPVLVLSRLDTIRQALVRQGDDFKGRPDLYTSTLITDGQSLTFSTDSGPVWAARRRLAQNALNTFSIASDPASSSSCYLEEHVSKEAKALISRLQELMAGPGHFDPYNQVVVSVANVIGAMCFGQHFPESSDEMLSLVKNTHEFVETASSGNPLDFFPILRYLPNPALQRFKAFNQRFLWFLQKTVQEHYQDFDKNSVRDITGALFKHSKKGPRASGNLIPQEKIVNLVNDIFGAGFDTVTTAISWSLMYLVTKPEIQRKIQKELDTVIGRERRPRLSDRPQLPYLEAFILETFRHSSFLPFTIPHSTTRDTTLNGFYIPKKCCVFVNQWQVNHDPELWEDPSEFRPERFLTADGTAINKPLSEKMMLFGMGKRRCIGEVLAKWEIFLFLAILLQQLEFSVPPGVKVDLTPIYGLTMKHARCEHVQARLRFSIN
Conditions: not given
For the molecule `O=C(NCCO)c1cc2c(s1)CCC2`, the AC50 is 14.1 µM (inconclusive).

Consider `O=C(NCc1nc2ccccc2[nH]1)[C@H]1C[C@@H]1[C@H](NP(=O)(c1ccccc1)c1ccccc1)c1ccccc1`, for which the AC50 is 15.8 µM (inconclusive).

For `COc1cnc(-c2ccccn2)nc1Sc1c(Cl)cccc1Cl`, the half-maximal activity concentration (AC50) was 2.82 µM (inconclusive).

As to `CN1C(=O)C(CC(=O)Nc2ccc(F)cc2)N(CCCc2ccccc2)C1=S` (stereo unspecified), the concentration at half-maximal activity (AC50) was 25.1 µM (inconclusive).

Turning to `Cc1cccc(CS(=O)(=O)Cc2ccc(C(=O)NCc3ccco3)o2)c1`, the AC50 is 5.01 µM (inconclusive).

As for `COC(=O)c1ccc(NC(C)=O)o1`, the AC50 is 22.4 µM (inconclusive).

The target of the next assay is Cytochrome P450 3A4 (Homo sapiens, UniProt P08684).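 Also: CYP3A4 tested as one member of a cytochrome P450 panel screen.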
Chain of Cytochrome P450 3A4 (P08684 whole entry): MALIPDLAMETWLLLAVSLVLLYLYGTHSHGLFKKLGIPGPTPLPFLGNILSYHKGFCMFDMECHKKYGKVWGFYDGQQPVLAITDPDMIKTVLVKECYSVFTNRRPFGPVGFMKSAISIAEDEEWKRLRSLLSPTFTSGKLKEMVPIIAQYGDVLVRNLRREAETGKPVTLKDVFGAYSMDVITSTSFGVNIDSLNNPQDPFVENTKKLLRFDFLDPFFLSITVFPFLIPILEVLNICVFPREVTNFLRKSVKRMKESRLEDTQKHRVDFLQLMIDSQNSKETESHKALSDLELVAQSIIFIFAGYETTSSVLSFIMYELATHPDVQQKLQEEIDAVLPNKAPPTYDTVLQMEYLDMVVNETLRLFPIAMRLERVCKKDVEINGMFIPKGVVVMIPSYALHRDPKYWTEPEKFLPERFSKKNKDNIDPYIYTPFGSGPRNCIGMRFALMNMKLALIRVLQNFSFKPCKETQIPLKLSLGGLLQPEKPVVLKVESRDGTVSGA
Conditions: not given
For the molecule `O=C(NCc1nc2ccccc2[nH]1)[C@H]1C[C@@H]1[C@H](NP(=O)(c1ccccc1)c1ccccc1)c1ccccc1`, the AC50 was 0.794 µM (inconclusive).

As for `O=[N+]([O-])c1ccc(N2CCN(CCOc3nonc3-c3ccccc3)CC2)c(Cl)c1`, the AC50 is 14.1 µM (inconclusive).

On to `CN1C(=O)C(CC(=O)Nc2ccc(F)cc2)N(CCCc2ccccc2)C1=S` (stereo unspecified), for which the AC50 was 22.4 µM (inconclusive).

On to `Cc1cccc(CS(=O)(=O)Cc2ccc(C(=O)NCc3ccco3)o2)c1`, for which the AC50 was 39.8 µM (inconclusive).

In the next assay the target is Cytochrome P450 2C9 (Homo sapiens, UniProt P11712).
Chain of Cytochrome P450 2C9 (P11712 whole entry): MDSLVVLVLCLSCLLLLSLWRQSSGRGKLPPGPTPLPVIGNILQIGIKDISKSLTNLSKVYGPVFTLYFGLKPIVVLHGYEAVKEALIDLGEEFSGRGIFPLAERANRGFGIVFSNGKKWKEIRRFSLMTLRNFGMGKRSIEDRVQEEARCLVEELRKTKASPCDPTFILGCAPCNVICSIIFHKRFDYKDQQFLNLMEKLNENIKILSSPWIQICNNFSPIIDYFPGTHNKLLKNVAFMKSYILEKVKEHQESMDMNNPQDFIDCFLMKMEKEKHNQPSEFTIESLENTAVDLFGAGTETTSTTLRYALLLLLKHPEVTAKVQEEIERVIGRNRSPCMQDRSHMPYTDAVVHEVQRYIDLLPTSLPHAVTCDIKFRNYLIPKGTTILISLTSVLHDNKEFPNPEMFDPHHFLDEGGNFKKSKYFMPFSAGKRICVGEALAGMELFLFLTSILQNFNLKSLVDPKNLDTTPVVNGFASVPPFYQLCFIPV
Conditions: not given
In the case of `O=C(NCCO)c1cc2c(s1)CCC2`, the half-maximal activity concentration (AC50) is 12.6 µM (inconclusive).

As to `COc1cnc(-c2ccccn2)nc1Sc1c(Cl)cccc1Cl`, the AC50 is 15.8 µM (inconclusive).

For `COC(=O)[C@@]1(Cc2ccc(OC)cc2)[C@H]2c3cc(C(=O)N(C)C)n(Cc4ccc(C(F)(F)F)nc4)c3C[C@H]2CN1C(=O)c1ccccc1`, the AC50 is 39.8 µM (inconclusive).

As to `CN1C(=O)C(CC(=O)Nc2ccc(F)cc2)N(CCCc2ccccc2)C1=S` (stereo unspecified), the AC50 is 2.82 µM (inconclusive).

Take `Cc1cccc(CS(=O)(=O)Cc2ccc(C(=O)NCc3ccco3)o2)c1`: the concentration at half-maximal activity (AC50) is 7.08 µM (inconclusive).

The next assay concerns INS1. The experiment in a line: beta cell apoptosis inhibitors, cytokine rescue, dose response, luminescence, retest (AID 449756).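 Also: cell death triggered by IL-1 beta plus TNF-alpha plus IFN-gamma mixture; protective hits raise ATP signal compared with cytokine alone wells.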 Format: functional, cell-based. The conditions noted are these: Rattus norvegicus.
Regarding `COc1ccc(Br)cc1CN(C)CC(=O)NCc1ccc(F)cc1`, the AC50 is 114 µM (active).

As for `C=C[C@H](CC(C)C)N(Cc1ccccc1)S(=O)(=O)N(Cc1ccc(OC)cc1)[C@H](C=C)CC(C)C`, the AC50 is 5.78 µM (active).

Turning to `CCCCCCc1ccc(N2C[C@H](Cc3ccccc3)[C@@H](CC(=O)NCc3ccc(OC)cc3)C2=O)cc1`, the AC50 is 7.78 µM (active).

In the case of `Cc1cccc(CNc2ccc(S(=O)(=O)N3CCCCC3)cc2)c1`, the AC50 is 27.2 µM (active).

Consider `O=[N+]([O-])c1ccc(N2CCN(CCOc3nonc3-c3ccccc3)CC2)c(Cl)c1`, for which the concentration at half-maximal activity (AC50) was 4.8 µM (active).

Consider `N#Cc1ccc(-c2csc(NNC(=O)c3ccccc3)n2)cc1`, for which the AC50 was > 260 µM (inactive).

Take `COc1ccc(-[n+]2c(-c3ccc(Cl)cc3)cn3c2CCCCC3)cc1`: the AC50 was 1.44 µM (active).

For the molecule `COCCCNC(=S)N/N=C/c1cccc(OC)c1O`, the AC50 was 2.44 µM (active).

Turning to `C/C(=N/NC(=O)CN(c1ccccc1)S(=O)(=O)c1ccccc1)c1ccccc1O`, the AC50 is 2.01 µM (active).

For another assay, the target named is Cytochrome P450 2C19 (Homo sapiens, UniProt P33261). The assay is described as follows: Cytochrome panel assay with activity outcomes. Panel member name: p450-cyp2c19 Compounds with AC50 equal or less than 10 uM are considered active. The conditions noted are these: read-out: AC50. Type of assay: functional.
Chain of Cytochrome P450 2C19 (P33261 whole entry): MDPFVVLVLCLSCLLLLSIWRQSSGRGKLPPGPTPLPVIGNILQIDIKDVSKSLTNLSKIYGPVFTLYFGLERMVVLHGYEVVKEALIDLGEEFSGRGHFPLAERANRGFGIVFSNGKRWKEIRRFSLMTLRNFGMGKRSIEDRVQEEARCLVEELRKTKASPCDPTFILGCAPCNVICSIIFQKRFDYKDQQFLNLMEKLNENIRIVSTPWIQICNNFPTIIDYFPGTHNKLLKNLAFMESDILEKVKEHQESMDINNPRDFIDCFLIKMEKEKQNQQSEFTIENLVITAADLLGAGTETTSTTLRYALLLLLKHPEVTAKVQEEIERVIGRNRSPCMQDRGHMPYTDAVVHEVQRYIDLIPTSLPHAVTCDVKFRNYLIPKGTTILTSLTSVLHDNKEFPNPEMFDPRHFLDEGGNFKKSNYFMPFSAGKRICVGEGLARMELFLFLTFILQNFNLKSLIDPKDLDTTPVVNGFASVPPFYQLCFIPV
For the molecule `O=C(NCCO)c1cc2c(s1)CCC2`, the AC50 was 5.01 µM (inconclusive).

Consider `O=C(NCc1nc2ccccc2[nH]1)[C@H]1C[C@@H]1[C@H](NP(=O)(c1ccccc1)c1ccccc1)c1ccccc1`, for which the AC50 is 39.8 µM (inconclusive).

On to `COc1cnc(-c2ccccn2)nc1Sc1c(Cl)cccc1Cl`, for which the AC50 is 8.91 µM (inconclusive).

On to `COC(=O)[C@@]1(Cc2ccc(OC)cc2)[C@H]2c3cc(C(=O)N(C)C)n(Cc4ccc(C(F)(F)F)nc4)c3C[C@H]2CN1C(=O)c1ccccc1`, for which the AC50 is 39.8 µM (inconclusive).

With `CN1C(=O)C(CC(=O)Nc2ccc(F)cc2)N(CCCc2ccccc2)C1=S` (stereo unspecified), the AC50 was 1.78 µM (inconclusive).

On to `Cc1cccc(CS(=O)(=O)Cc2ccc(C(=O)NCc3ccco3)o2)c1`, for which the AC50 was 3.55 µM (inconclusive).

In the case of `COC(=O)c1ccc(NC(C)=O)o1`, the half-maximal activity concentration (AC50) is 39.8 µM (inconclusive).
